# Measurements from patent publication US11712446B2, “Methods of mobilizing marrow infiltrating lymphocytes and uses thereof” (GLYCOMIMETICS, INC., priority 2017, dated 2023).
# Legend:
# Type in all cases: in vivo, BALB/c mice
# CD8+ T cells = test: Flow cytometric CD62L/CD44 phenotype of CD8+ T cells in peripheral blood and bone marrow of CT26 immune mice (MIL mobilization); settings: 12 hours after final dose
# Method: (§1) Protocol for Detection and Mobilization of MILs in the CT-26 tumor model: GMI-1271 is a potent, small-molecule, glycomimetic antagonist of E-selectin. GMI-1359 is a potent, small-molecule glycomimetic dual antagonist, targeting E-selectin and CXCR4. The effects of inhibiting either E-selectin with GMI-1271 or E-selectin and CXCR4 with GMI-1359 on MIL mobilization was tested in BALB/c mice that had been induced to reject the syngeneic CT26 colon carcinoma via anti-CTLA-4 T cell checkpoint antibody.
# Treatment with anti-CTLA-4 for all mice implanted with CT26.WT began on Day 3. All mice were dosed intraperitoneally on Days 3, 6, 10, 13, and 17. All mice were dosed according to individual body weight on the day of treatment (0.2 mg/20 g).
# On Day 25, mice without tumors following CTLA-4 treatment were distributed into the four “Tumor Immune” treatment groups indicated in Table 1 such that the mean body weight within each group was within 10% of the overall mean.
# (§2) Treatment for “Tumor Immune” groups 1-4 began on Day 25. The Vehicle was dosed intraperitoneally every 12 hours for 3 days (Days 25-27). GMI-1271 and GMI-1359 were dosed intraperitoneally at 40 mg/kg every 12 hours for 3 days (Days 25-27). G-CSF was dosed at 0.125 mg/kg subcutaneously every 12 hours for 3 days (Days 25-27).
# A “Nonimmune” group 5 was populated with age-matched, naive non-tumor bearing mice.
# (§3) At 12 hours after the final dose of test agents, all mice in groups 1-5 (treatment “Tumor Immune” groups 1-4 and control “Nonimmune” group 5) were euthanized for blood and bone marrow collection.
# (§4) Flow cytometric analysis was used to determine CD62L and CD44 expression on CD8+ T cells in whole blood and bone marrow samples. Secondary analysis included AH-1 Dextramer analysis on the three tissue types and IFNγ production in pooled blood and bone marrow samples. Samples were acquired using a 4 laser, 14 color Attune NxT Flow Cytometer with autosampler. CD62L and CD44 events were gated on CDS+ T cells.
# CD8+ MILs = test: IFNγ production by bone marrow CD8+ MILs following in vitro stimulation with irradiated CT-26 tumor cells or AH1; settings: tumor immunized mice, 40 mg/kg IP every 12 hours for 3 days, FIG. 2
# Method: as §1, §2, §3
# as §4, with “CD62L and CD44 events were gated on CDS+ T cells.” left out
# [1] = system: CD8+ T-cells in peripheral blood; test: Percent of CD8+ lymphocytes in peripheral blood armed to produce IFNγ; settings: CT26 immune mice; GMI compounds 40 mg/kg IP, G-CSF 0.125 mg/kg SC, every 12 hours for 3 days; 12 hours after final dose; FIG. 3
# Method: as §1, §2, §3
# as §4, with “CD62L and CD44 events were gated on CDS+ T cells.” left out
smiles,measurement,setting,value
CC[C@H]1C[C@@H](C(=O)NCCNC(=O)CCOCCOCCOCCOCCOCCOCCOCCOCCOCCOCCOCCOC)C[C@@H](O[C@@H]2O[C@H](CO)[C@H](O)[C@H](O[C@@H](CC3CCCCC3)C(=O)[O-])[C@H]2NC(C)=O)[C@@H]1O[C@@H]1O[C@@H](C)[C@@H](O)[C@@H](O)[C@@H]1O.[Na+] [GMI-1271],"redistribution of effector memory (EM, CD62L-CD44+) CD8+ T cells","CD8+ T cells; 40 mg/kg IP every 12 hours for 3 days, FIG. 1C",not effected
same,mobilization of naïve (CD62L+CD44−) CD8+ T cells into the peripheral blood,"CD8+ T cells; GMI compounds 40 mg/kg IP, G-CSF 0.125 mg/kg SC, every 12 hours for 3 days, FIG. 1A",mobilized
same,"mobilization of central memory (CM, CD62L+CD44+) CD8+ T cells into the peripheral blood","CD8+ T cells; GMI compounds 40 mg/kg IP, G-CSF 0.125 mg/kg SC, every 12 hours for 3 days, FIG. 1B",mobilized
same,functional activity of bone marrow CD8+ MILs (IFNγ production) after in vitro stimulation,CD8+ MILs,primed to respond to both AH1 and whole tumor cells
same,percentage of CD8+ T-cells in peripheral blood primed to produce IFNγ,[1],markedly increased
